# Data as given in PubChem BioAssay AID1224910.
# Molecular target: Serine/threonine-protein kinase PAK 2 (Homo sapiens) (UniProt Q13177)
# Assay: PubChem AID 1224910
# Conditions: Caliper in vitro kinase assay, dephosphorylated PAK2
# Chain of Serine/threonine-protein kinase PAK 2 (Homo sapiens) (Q13177 whole entry, looked up): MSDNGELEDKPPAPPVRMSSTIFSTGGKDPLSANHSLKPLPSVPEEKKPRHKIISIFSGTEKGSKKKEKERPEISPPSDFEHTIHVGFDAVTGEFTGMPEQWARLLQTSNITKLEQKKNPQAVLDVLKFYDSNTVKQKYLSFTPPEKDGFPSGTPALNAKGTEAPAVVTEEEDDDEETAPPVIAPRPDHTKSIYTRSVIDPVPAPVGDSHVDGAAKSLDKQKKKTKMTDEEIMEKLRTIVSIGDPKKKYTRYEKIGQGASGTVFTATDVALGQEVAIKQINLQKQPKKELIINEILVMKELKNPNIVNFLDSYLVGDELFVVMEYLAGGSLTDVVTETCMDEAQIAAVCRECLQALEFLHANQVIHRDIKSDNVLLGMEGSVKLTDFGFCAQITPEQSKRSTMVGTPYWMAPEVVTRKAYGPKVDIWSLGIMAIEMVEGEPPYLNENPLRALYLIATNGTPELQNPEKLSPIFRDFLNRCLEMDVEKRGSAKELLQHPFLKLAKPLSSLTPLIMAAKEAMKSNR
structure (smiles),measurement,value
CC(C)NC(=O)N1CC[C@H](N=C2Nc3cc(F)ccc3N(CC(F)F)c3ccc(Cl)cc32)C1,IC50,270 nM
